Test results taken from patent publication US9314026B2, “Heterocyclylpyri(mi)dinylpyrazole” (Bayer Intellectual Property GmbH, priority 2011, dated 2016).
Like-named read-outs stand apart in the source and are kept apart here.

Test: determination of the log P values by HPLC on a reverse phase column (C18), EEC-Directive 79/831 Annex V.A8
Format: physicochemical
Experimental: Method A Note on the determination of the log P values and mass detection: The stated log P values were determined in accordance with EEC-Directive 79/831 Annex V.A8 by HPLC (High Performance Liquid Chromatography) on a reverse phase column (C18). […] The mass detection was effected with an […] system. Method B Note on the determination of the log P values and mass detection: The stated log P values were determined in accordance with EEC-Directive 79/831 Annex V.A8 by HPLC (High Performance Liquid Chromatography) on a reverse phase column (C18). […] The mass detection was effected with the Micronass ZQ2000 mass detector from Waters. Method C Note on the determination of the log P values and mass detection: The stated log P values were determined in accordance with EEC-Directive 79/831 Annex V.A8 by UPLC (Ultra Performance Liquid Chromatography) on a reverse phase column (C18). […] The mass detection was effected with the LCT Premier or SQD mass detector from Waters.

| chromatographic logP (pH 2.3) | chromatographic logP (pH 2.7) | Compound | also measured |
| --- | --- | --- | --- |
| 3.21 | – | Fc1ccc(-c2nn3c(c2Br)CCC3)cc1 [[IV-1], 3-bromo-2-(4-fluorophenyl)-5,6-dihydro-4H-pyrrolo[1,2-b]pyrazole] | chromatographic logP (pH 7): 3.21 |
| 2.02 | – | O=C(Nc1cc(-c2c(-c3csc(Cl)c3)nn3c2CCC3)ccn1)C1CC1 [[XI-20], N-{4-[2-(5-chloro-3-thienyl)-5,6-dihydro-4H-pyrrolo[1,2-b]pyrazol-3-yl]pyridin-2-yl}cyclopropanecarboxamide] | – |
| 2.36 | – | CC1Cc2c(-c3ccnc(NC(=O)CC4CC4)c3)c(-c3ccc(F)cc3)nn2C1 (stereo not drawn) [[XI-22], 2-cyclopropyl-N-{4-[2-(4-fluorophenyl)-5-methyl-5,6-dihydro-4H-pyrrolo[1,2-b]pyrazol-3-yl]pyridin-2-yl}acetamide] | – |
| 2.32 | – | CC1CCn2nc(-c3ccccc3)c(-c3ccnc(NC(=O)CC4CC4)c3)c21 (stereo not drawn) [[XI-11], 2-cyclopropyl-N-[4-(4-methyl-2-phenyl-5,6-dihydro-4H-pyrrolo[1,2-b]pyrazol-3-yl)pyridin-2-yl]acetamide] | – |
| 1.91 | – | CCC(=O)Nc1cc(-c2c(-c3ccc(F)cc3)nn3c2CC(C)C3)ccn1 (stereo not drawn) [[XI-7], N-{4-[2-(4-fluorophenyl)-5-methyl-5,6-dihydro-4H-pyrrolo[1,2-b]pyrazol-3-yl]pyridin-2-yl}propanamide] | – |
| 2.69 | 2.69 | Fc1ccc(-c2cc3n(n2)CCC3)cc1F [[VI-2], 2-(3,4-difluorophenyl)-5,6-dihydro-4H-pyrrolo[1,2-b]pyrazole] | – |
| 1.28 | 1.28 | Nc1cc(-c2c(-c3ccc(F)c(Cl)c3)nn3c2CCC3)ccn1 [[II-2], 4-[2-(3-chloro-4-fluorophenyl)-5,6-dihydro-4H-pyrrolo[1,2-b]pyrazol-3-yl]pyridin-2-amine] | – |
| 1.87 | – | CCC(=O)Nc1cc(-c2c(-c3ccccc3)nn3c2C(C)CC3)ccn1 (stereo not drawn) [[XI-2], N-[4-(4-methyl-2-phenyl-5,6-dihydro-4H-pyrrolo[1,2-b]pyrazol-3-yl)pyridin-2-yl]propanamide] | – |
| 3.54 | – | Fc1ccc(-c2nn3c(c2Br)CCC3)cc1F [[IV-2], 3-bromo-2-(3,4-difluorophenyl)-5,6-dihydro-4H-pyrrolo[1,2-b]pyrazole] | chromatographic logP (pH 2.5): 3.54 |
| 2.74 | – | CCC(=S)Nc1cc(-c2c(-c3ccc(F)cc3)nn3c2CCC3)ccn1 [[XI-9], N-{4-[2-(4-fluorophenyl)-5,6-dihydro-4H-pyrrolo[1,2-b]pyrazol-3-yl]pyridin-2-yl}propanethioamide] | – |
| 2.81 | – | CCC1CCc2c(-c3ccnc(NC(=O)CC4CC4)c3)c(-c3ccc(F)cc3)nn21 (stereo not drawn) [[XI-26], 2-cyclopropyl-N-{4-[6-ethyl-2-(4-fluorophenyl)-5,6-dihydro-4H-pyrrolo[1,2-b]pyrazol-3-yl]pyridin-2-yl}acetamide] | – |
| 1.95 | – | CCC(=O)Nc1cc(-c2c(-c3csc(Cl)c3)nn3c2CCC3)ccn1 [[XI-12], N-{4-[2-(5-chloro-3-thienyl)-5,6-dihydro-4H-pyrrolo[1,2-b]pyrazol-3-yl]pyridin-2-yl}propanamide] | – |
| 2.33 | – | CC1OCCc2c(-c3ccnc(NC(=O)C4CC4)c3)c(-c3ccc(F)cc3)nn21 (stereo not drawn) [[XI-23], N-{4-[2-(4-fluorophenyl)-7-methyl-4,5-dihydropyrazolo[1,5-c][1,3]oxazin-3-yl]pyridin-2-yl}cyclopropanecarboxamide] | – |
| – | – | 3-iodo-5-methyl-2-phenyl-5,6-dihydro-4H-pyrrolo[1,2-b]pyrazole [[IV-7]] | LogP (pH 2.3) (pH 2.3, compounds of the type [IV]): 3.74; log P (pH 2.5) (pH 2.5, preparation examples in the text): 3.74 |
| 1.74 | 1.74 | CC(CCO)c1cc(-c2ccc(F)cc2)n[nH]1 (stereo not drawn) [[XIV-5], 3-[3-(4-fluorophenyl)-1H-pyrazol-5-yl]butan-1-ol] | – |
| 1.08 | 1.08 | Nc1cc(-c2c(-c3ccc(F)c(F)c3)nn3c2CCC3)ccn1 [[II-3], 4-[2-(3,4-difluorophenyl)-5,6-dihydro-4H-pyrrolo[1,2-b]pyrazol-3-yl]pyridin-2-amine] | – |
| 2.08 | – | O=C(CC1CC1)Nc1cc(-c2c(-c3ccc(F)cc3)nn3c2CCC3)ccn1 [[XI-13], 2-cyclopropyl-N-{4-[2-(4-fluorophenyl)-5,6-dihydro-4H-pyrrolo[1,2-b]pyrazol-3-yl]pyridin-2-yl}acetamide] | – |
| 4.01 | – | Fc1ccc(-c2nn3c(c2Br)CCC3)cc1Cl [[IV-3], 3-bromo-2-(3-chloro-4-fluorophenyl)-5,6-dihydro-4H-pyrrolo[1,2-b]pyrazole] | chromatographic logP (pH 2.5): 4.01 |
| 1.64 | – | CC(=O)Nc1cc(-c2c(-c3ccc(F)cc3)nn3c2CC(C)C3)ccn1 (stereo not drawn) [[XI-3], N-{4-[2-(4-fluorophenyl)-5-methyl-5,6-dihydro-4H-pyrrolo[1,2-b]pyrazol-3-yl]pyridin-2-yl}acetamide] | – |

| chromatographic logP (pH 2.3) | chromatographic logP (pH 2.7) | Compound | also measured |
| --- | --- | --- | --- |
| 1.5 | 1.51 | OCCCc1cc(-c2ccc(F)cc2)n[nH]1 [[XIV-1], 3-[3-(4-fluorophenyl)-1H-pyrazol-5-yl]propan-1-ol] | – |
| 2.3 | – | CCC(=O)Nc1cc(-c2c(-c3ccc(F)cc3)nn3c2CCC3CC)ccn1 (stereo not drawn) [[XI-16], N-{4-[6-ethyl-2-(4-fluorophenyl)-5,6-dihydro-4H-pyrrolo[1,2-b]pyrazol-3-yl]pyridin-2-yl}propanamide] | – |
| 3.56 | – | CC1CCn2nc(-c3ccccc3)c(I)c21 (stereo not drawn) [[IV-4], 3-iodo-4-methyl-2-phenyl-5,6-dihydro-4H-pyrrolo[1,2-b]pyrazole] | chromatographic logP (pH 2.5): 3.56 |
| 1.72 | – | CCC(=O)Nc1cc(-c2c(-c3ccc(F)cc3)nn3c2C(OC)CC3)ccn1 (stereo not drawn) [[XI-19], N-{4-[2-(4-fluorophenyl)-4-methoxy-5,6-dihydro-4H-pyrrolo[1,2-b]pyrazol-3-yl]pyridin-2-yl}propanamide] | – |
| – | – | CCC(=O)N(C(=O)C1CC1)c1cc(-c2c(-c3ccc(F)cc3)nn3c2CCCC3)ccn1 [Example 17, N-{4-[2-(4-fluorophenyl)-4,5,6,7-tetrahydropyrazolo[1,5-a]pyridin-3-yl]pyridin-2-yl}-N-propionylcyclopropanecarboxamide] | chromatographic logP: 3.22 |
| 1.6 | 1.76 | CC(=O)Nc1cc(-c2c(-c3ccccc3)nn3c2C(C)CC3)ccn1 (stereo not drawn) [[XI-1], N-[4-(4-methyl-2-phenyl-5,6-dihydro-4H-pyrrolo[1,2-b]pyrazol-3-yl)pyridin-2-yl]acetamide] | – |
| 1.69 | – | O=C(Nc1cc(-c2c(-c3ccc(F)cc3)nn3c2CCC3)ccn1)C1CCOC1 (stereo not drawn) [[XI-24], N-{4-[2-(4-fluorophenyl)-5,6-dihydro-4H-pyrrolo[1,2-b]pyrazol-3-yl]pyridin-2-yl}tetrahydrofuran-3-carboxamide] | – |
| – | 3.97 | CC1(C)OB(c2c(-c3ccc(F)cc3)nn3c2CCC3)OC1(C)C [[III-1], 2-(4-fluorophenyl)-3-(4,4,5,5-tetramethyl-1,3,2-dioxaborolan-2-yl)-5,6-dihydro-4H-pyrrolo[1,2-b]pyrazole] | – |
| 1.77 | – | O=C(Nc1cc(-c2c(-c3ccc(F)cc3)nn3c2CCC3)ccn1)C1CCOCC1 [[XI-27], N-{4-[2-(4-fluorophenyl)-5,6-dihydro-4H-pyrrolo[1,2-b]pyrazol-3-yl]pyridin-2-yl}tetrahydro-2H-pyran-4-carboxamide] | – |
| – | 2 | CS(=O)(=O)OCCCc1cc(-c2ccc(F)cc2)n[nH]1 [[VII-1], 3-[3-(4-fluorophenyl)-1H-pyrazol-5-yl]propyl methanesulfonate] | – |
| 1.02 | 1.02 | Nc1cc(-c2c(-c3ccc(F)cc3)nn3c2CCC3)ccn1 [[II-1], 4-[2-(4-fluorophenyl)-5,6-dihydro-4H-pyrrolo[1,2-b]pyrazol-3-yl]pyridin-2-amine] | – |
| – | 2.42 | CS(=O)(=O)OCCCc1cc(-c2ccc(F)c(Cl)c2)n[nH]1 [[VII-2], 3-[3-(3-chloro-4-fluorophenyl)-1H-pyrazol-5-yl]propyl methanesulfonate] | – |
| 2.24 | – | CC(C)C(=O)Nc1cc(-c2c(-c3csc(Cl)c3)nn3c2CCC3)ccn1 [[XI-21], N-{4-[2-(5-chloro-3-thienyl)-5,6-dihydro-4H-pyrrolo[1,2-b]pyrazol-3-yl]pyridin-2-yl}-2-methylpropanamide] | – |
| – | 2.17 | CS(=O)(=O)OCCCc1cc(-c2ccc(F)c(F)c2)n[nH]1 [[VII-3], 3-[3-(3,4-difluorophenyl)-1H-pyrazol-5-yl]propyl methanesulfonate] | – |
| 2.39 | 2.39 | Fc1ccc(-c2cc3n(n2)CCC3)cc1 [[VI-1], 2-(4-fluorophenyl)-5,6-dihydro-4H-pyrrolo[1,2-b]pyrazole] | – |
| 3.07 | 3.07 | Fc1ccc(-c2cc3n(n2)CCC3)cc1Cl [[VI-3], 2-(3-chloro-4-fluorophenyl)-5,6-dihydro-4H-pyrrolo[1,2-b]pyrazole] | – |
| 4.49 | – | Clc1cc(-c2nn3c(c2I)CCCC3)cs1 [[IV-6], 2-(5-chloro-3-thienyl)-3-iodo-4,5,6,7-tetrahydropyrazolo[1,5-a]pyridine] | chromatographic logP (pH 2.5): 4.49 |
| 3.78 | – | CC1CCc2c(I)c(-c3ccc(F)cc3)nn21 (stereo not drawn) [[IV-5], 2-(4-fluorophenyl)-3-iodo-6-methyl-5,6-dihydro-4H-pyrrolo[1,2-b]pyrazole] | chromatographic logP (pH 2.5): 3.78 |
| 2.4 | – | O=C(CC1CC1)Nc1cc(-c2c(-c3csc(Cl)c3)nn3c2CCC3)ccn1 [[XI-25], N-{4-[2-(5-chloro-3-thienyl)-5,6-dihydro-4H-pyrrolo[1,2-b]pyrazol-3-yl]pyridin-2-yl}-2-cyclopropylacetamide] | – |
